Results published in publication PMC6882446, “Further validation of strecker-type α-aminonitriles as a new class of potent human carbonic anhydrase II inhibitors: hit expansion within the public domain using differential scanning fluorimetry leads to chemotype refinement” (Journal of Enzyme Inhibition and Medicinal Chemistry, 2019).
Like-named read-outs stand apart in the source and are kept apart here.

Assays:
hCA II = molecular target: T1, hCA II (Homo sapiens, UniProt P00918); test: stopped-flow CO2 hydration assay; format: biochemical
T1 construct: gene CA2; recombinant human CA II, obtained in-house
Description: stopped-flow CO2 hydration assay on hCA II

bCA [1] = molecular target: T2, bCA (Bos taurus, UniProt P00921); test: biochemical; parameters: Differential scanning fluorimetry (SYPRO Orange) melting temperature shift of bCA, 20 uM compound
T2 construct: gene CA2; commercial bovine carbonic anhydrase
Protocol: (§1) Thermal shift assay was carried out using ViiA™ 7 Real-Time PCR System equipped with 384-well block (Applied Biosystems, USA). The TSA procedure was adopted from the literature[6–8] and was modified in order to allow measuring the bCA melting temperature on interaction with various compounds, including the known CA inhibitor azetazolamide (AZ)[9], which was used in this study as a reference bCA binder at 10 and 20 µM concentration. For 800-compound screening, the test reactions were set up in the following buffer: 10 mM NaH2PO4/Na2HPO4, pH 7.0, 10 mM NaCl. The total volume of the reaction mixture per well was 10 µL. Carbonic anhydrase (Sigma Aldrich Cat# C3934) in 300 µg/mL concentration was pre-mixed with environment-sensitive SYPRO orange dye (Invitrogen, Cat# S6650) at final concentration in the reaction of 10 ×, with regard to the stock concentration stated by the vendor. The mixtures were pre-incubated for 1 h at 4 °C with 20 µM concentrations of the compounds (and 1% final concentration of DMSO), placed into MicroAmp® Optical 384-Well Reaction Plate (ThermoFisher, Cat# 4309849). The reaction mixture was kept at room temperature for 15 min to ensure full protein-compound interactions. The temperature was raised at 1.6 °C/s rate to 40 °C without signal reading. Starting from 40 °C up to 85 °C the heating rate was set to 0.05 °C/s with constant fluorescence reading, using 470/623 nm filter set. The raw data of dye fluorescence intensity change upon melting of the protein were obtained from the instrument ViiA 7 RUO software. Further data processing and visualisation was performed by custom-made Microsoft Excel scripts. The peak of the first derivative for the fluorescence curve was used to define melting temperature Tm. Tm for DMSO control wells, having only protein, dye and 1% DMSO was used as a To to determine melting temperature shifts (ΔTm). All measurements were made in quadruplicates.

bCA [2] = molecular target: T2, bCA; test: biochemical; parameters: differential scanning fluorimetry (thermal shift) with SYPRO Orange, bovine carbonic anhydrase
Protocol: as §1, with “For” for “Thermal shift assay was carried out using ViiA™ 7 Real-Time PCR System equipped with 384-well block (Applied Biosystems, USA). The TSA procedure was adopted from the literature[6–8] and was modified in order to allow measuring the bCA melting temperature on interaction with various compounds, including the known CA inhibitor azetazolamide (AZ)[9], which was used in this study as a reference bCA binder at 10 and 20 µM concentration. For”, “quadruplicates. Thermal shift assay was carried out using ViiA™ 7 Real-Time PCR System equipped with 384-well block (Applied Biosystems, USA). The TSA procedure was adopted from the literature[6–8] and was modified in order to allow measuring the bCA melting temperature on interaction with various compounds, including the known CA inhibitor azetazolamide (AZ)[9], which was used in this study as a reference bCA binder at 10 and 20 µM concentration.” for “quadruplicates.”

[3] = CO2 […]; […] Hepes pH […]; […] Na2SO4, room temperature, […] min pre-incubation

T2 sequence (P00921 2-260): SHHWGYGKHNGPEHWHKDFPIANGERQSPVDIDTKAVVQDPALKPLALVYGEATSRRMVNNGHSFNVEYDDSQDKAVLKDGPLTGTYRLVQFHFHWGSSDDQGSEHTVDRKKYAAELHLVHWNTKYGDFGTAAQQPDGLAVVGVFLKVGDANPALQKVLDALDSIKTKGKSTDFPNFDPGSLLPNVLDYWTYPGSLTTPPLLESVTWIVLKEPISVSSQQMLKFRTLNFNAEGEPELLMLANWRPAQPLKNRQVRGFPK

Compound | Ki (hCA II; [3]) | further results
CCNC(=O)CCCC(=O)N1CCN(C(C#N)c2ccccc2)CC1 (stereo not drawn) [compound 18, Z1185260979] | – | Ki (hCA II): 0.93 µM; ΔTm at 20 µM (bCA [1]): 1.41 °C
CC(C)C(C#N)N1CCN(C(=O)CSc2ccc(Br)cc2)CC1 (stereo not drawn) [compound 36, Z1167646026] | – | Ki (hCA II): 29.8 µM
N#CC(c1ccccc1)N1CCN(CC(=O)NC2CCOCC2)CC1 (stereo not drawn) [compound 28, Z1317906129] | 8.9 µM | –
COc1ccc(C(=O)N2CCN(C(C#N)C(C)C)CC2)cc1OC(F)F (stereo not drawn) [compound 46] | – | ΔTm at 20 µM (bCA [2]): 1.37 °C
CC(C)C(C#N)N1CCN(Cc2nccn2CC(F)(F)F)CC1 (stereo not drawn) [compound 47, Z1176495724] | – | Ki (hCA II): 38.2 µM
CCc1noc(CC)c1CC(=O)N1CCN(C(C#N)C(C)C)CC1 (stereo not drawn) [compound 31, Z1390085782] | – | Ki (hCA II): 0.76 µM; ΔTm at 20 µM (bCA [1]): 1.55 °C
N#Cc1nccnc1N1CCN(Cc2ccccc2)C(C#N)C1 (stereo not drawn) [compound 21, Z1205181012] | > 100 µM | –
CC(C)C(C#N)N1CCN(C(=O)C2CCCO2)CC1 (stereo not drawn) [compound 39, Z1167645477] | – | Ki (hCA II): 20.4 µM
N#CC(c1ccccc1)N1CCN(CC(=O)NCC(F)(F)F)CC1 (stereo not drawn) [compound 49, Z1317905463] | 3.5 µM | –
CC(C)C(C#N)N1CCN(Cc2nccn2CC(F)(F)F)CC1 (stereo not drawn) [compound 47] | – | ΔTm at 20 µM (bCA [2]): 1.19 °C
Cc1ccccc1CN1CCN(C(=O)CN2CCN(C(C#N)C(C)C)CC2)CC1 (stereo not drawn) [compound 35, Z1171402445] | – | Ki (hCA II): 60.5 µM; ΔTm at 20 µM (bCA [1]): 1.82 °C
CC(C)C(C#N)N1CCN(c2ncnc3cc(F)ccc23)CC1 (stereo not drawn) [compound 15, Z1251205230] | > 100 µM | –
CC(C)C(C#N)N1CCN(C(=O)CN2CCOC(c3ccc(F)cc3)C2)CC1 (stereo not drawn) [compound 45, Z1567277098] | 40.9 µM | –
CC(C)C(C#N)N1CCN(c2ncnc3ccsc23)CC1 (stereo not drawn) [compound 16, Z1251205249] | – | Ki (hCA II): 0.97 µM; ΔTm at 20 µM (bCA [1]): 1.5 °C
Cc1ccc(N(CC(=O)N2CCN(C(C#N)C(C)C)CC2)C(C)C)cc1 (stereo not drawn) [compound 34, Z1567293695] | 5 µM | –
N#CC(c1ccc(Br)cc1)N1CCN(CCN2C(=O)CNC2=O)CC1 (stereo not drawn) [compound 38, Z1567199718] | 5 µM | –
CCNC(=O)C1CCCN(C(C#N)c2c(F)cccc2Cl)C1 (stereo not drawn) [compound 14, Z1230758078] | 9.3 µM | –
COc1ccc(C(=O)N2CCN(C(C#N)C(C)C)CC2)cc1OC(F)F (stereo not drawn) [compound 46, Z1126852482] | – | Ki (hCA II): 3.7 µM
N#CC(c1ccccc1)N1CCN(C(=O)c2ccccc2)CC1 (stereo not drawn) [compound 10, Z146786712] | 53.7 µM | –
Cc1cnc(C(=O)N2CCN(Cc3ccccc3)C(C#N)C2)cn1 (stereo not drawn) [compound 20, Z1204317166] | 100 µM | –
CNC(=O)C1CCN(C(C#N)c2c(F)cccc2Cl)CC1 (stereo not drawn) [compound 26, Z1297989190] | 3 µM | –
N#CC(c1c(F)cccc1Cl)N1CCCC(N2CCNC2=O)C1 (stereo not drawn) [compound 24, Z1298330150] | 16 µM | –
COc1ccc(C(C#N)N2CCN(C(=O)c3ccc(S(=O)(=O)N4CCCCCC4)cc3)CC2)cc1 (stereo not drawn) [compound 9, Z118259626] | > 100 µM | –
N#CC(c1ccccc1)N1CCN(C(=O)C2CCN(S(=O)(=O)c3ccccc3F)CC2)CC1 (stereo not drawn) [compound 8, Z118260178] | 74.3 µM | –

Compound | Ki (hCA II; [3]) | further results
N#CC(c1ccccc1)N1CCN(CC(=O)NCC2CCC2)CC1 (stereo not drawn) [compound 33, Z1395304494] | 5.3 µM | –
N#CC(Nc1ccc(F)cc1)c1ccco1 (stereo not drawn) [compound 5, Z131022682] | 8.1 µM | –
Cn1cc(CN2CCN(C(C#N)c3ccccc3)CC2)c(-c2cccnc2)n1 (stereo not drawn) [compound 50, Z1470771430] | – | Ki (hCA II): 0.68 µM; ΔTm at 20 µM (bCA [1]): 1.37 °C
CNS(=O)(=O)CCCN1CCN(C(C#N)c2ccccc2)CC1 (stereo not drawn) [compound 32, Z1395303258] | – | Ki (hCA II): 0.86 µM
CC(C)C(C#N)N1CCN(C(=O)C2CCCO2)CC1 (stereo not drawn) [compound 39] | – | ΔTm at 20 µM (bCA [2]): 1.64 °C
CC(C#N)N1CCN(C(=O)OC(C)(C)C)CC1 (stereo not drawn) [compound 40, Z1124717499] | 41.9 µM | –
N#CC(C1CCCCC1)N1CCN(C(=O)CCc2ccccn2)CC1 (stereo not drawn) [compound 12, Z913897024] | 40.9 µM | –
CCC(CC)c1cc(C(=O)N2CCN(C(C#N)C(C)C)CC2)on1 (stereo not drawn) [compound 22, Z1261078980] | > 100 µM | –
COc1ccc(C(C#N)N2CCN(C(=O)C3CCCCC3)CC2)cc1 (stereo not drawn) [compound 30, Z146384300] | – | Ki (hCA II): 0.91 µM; ΔTm at 20 µM (bCA [1]): 1.64 °C
CC1(C)CN(C(C#N)c2ccc(Cl)cc2)CCO1 (stereo not drawn) [compound 13, Z1097120891] | 7.4 µM | –
Cc1ccc(C(=O)NCC(=O)N2CCN(C(C#N)C(C)C)CC2)cc1 (stereo not drawn) [compound 41, Z1416783341] | 35.1 µM | –
CC(C)C(C#N)N1CCN(C(=O)C/C=C/c2cccc(F)c2)CC1 (stereo not drawn) [compound 27, Z1343956502] | > 100 µM | –
N#CC(c1c(F)cccc1Cl)N1CCC(N2CCCC2=O)CC1 (stereo not drawn) [compound 25, Z1298979831] | 36.1 µM | –
N#CC(c1ccccc1)N1CCN(CC2CCOC2)CC1 (stereo not drawn) [compound 37, Z1395305944] | 2.3 µM | –
COc1ccc(C(C#N)N2CCN(C(=O)c3ccc4[nH]c5c(c4c3)CC(C)CC5)CC2)cc1 (stereo not drawn) [compound 7, Z118259780] | > 100 µM | –
CC(C)C(C#N)N1CCN(C(=O)CSc2ccc(Br)cc2)CC1 (stereo not drawn) [compound 36] | – | ΔTm at 20 µM (bCA [2]): 1.64 °C
N#CC1CN(C(=O)CCc2ccsc2)CCN1Cc1ccccc1 (stereo not drawn) [compound 19, Z1204316164] | 9.6 µM | –
Cc1ccc(C(=O)C2CCN(CC(=O)N3CCN(C(C#N)C(C)C)CC3)CC2)cc1 (stereo not drawn) [compound 48, Z1567280757] | 5.5 µM | –
COc1ccc(C(C#N)N2CCN(C(=O)c3ccc(Br)cc3)CC2)cc1 (stereo not drawn) [compound 4, Z118259550] | > 100 µM | –
CC(C)C(C#N)N1CCN(C(=O)c2scnc2C(C)(C)C)CC1 (stereo not drawn) [compound 23, Z1322755479] | 9.1 µM | –
N#CC1COCCN1 (stereo not drawn) [compound 43, Z1198234963] | > 100 µM | –
N#CC(c1ccccc1)N1CCN(Cc2cccnc2)CC1 (stereo not drawn) [compound 29, Z1317905741] | 3.7 µM | –
CC(C)C(C#N)N1CCN(CC(=O)NCc2ccccn2)CC1 (stereo not drawn) [compound 17, Z1176496598] | – | Ki (hCA II): 0.78 µM; ΔTm at 20 µM (bCA [1]): 1.14 °C
